# Values of other authors as cited in publication PMC6972991 (Chemistry (Weinheim an Der Bergstrasse, Germany), 2019).
smiles,measurement,value
O=S(=O)(O)c1ccccc1 [benzenesulfonic acid],pKa,≈ 4
